In brackets after ≈: the same amount, converted by molar mass.
Assays:
Type in all cases: functional
Candida albicans = experiment: Antifungal activity against Candida albicans ATCC 10231 by micro-broth dilution method
Candida tropicalis = experiment: Antifungal activity against Candida tropicalis C131 by micro-broth dilution method
Saccharomyces cerevisiae = experiment: Antifungal activity against Saccharomyces cerevisiae ATCC 9763 by microbroth dilution method
Cryptococcus neoformans = experiment: Antifungal activity against Cryptococcus neoformans ATCC 32264 by microbroth dilution method
Aspergillus fumigatus = experiment: Antifungal activity against Aspergillus fumigatus ATCC 26934 by micro-broth dilution method
Aspergillus flavus = experiment: Antifungal activity against Aspergillus flavus ATCC 9170 by micro-broth dilution method
Trichophyton rubrum = experiment: Antifungal activity against Trichophyton rubrum C113 by microbroth dilution method
Aspergillus niger = experiment: Antifungal activity against Aspergillus niger ATCC 9029 by micro-broth dilution method
Nannizzia gypsea = experiment: Antifungal activity against Microsporum gypseum C115 by microbroth dilution method
[1] = system: Trichophyton mentagrophytes; experiment: Antifungal activity against Trichophyton mentagrophytes ATCC 9972 by micro-broth dilution method

Row | Compound | MIC (Candida albicans) [µg/mL] | MIC (Candida tropicalis) [µg/mL] | MIC (Saccharomyces cerevisiae) [µg/mL] | MIC (Cryptococcus neoformans) [µg/mL] | MIC (Aspergillus fumigatus) [µg/mL] | MIC (Aspergillus flavus) [µg/mL] | MIC (Trichophyton rubrum) [µg/mL] | MIC (Aspergillus niger) [µg/mL] | MIC (Nannizzia gypsea) [µg/mL] | MIC [1] [µg/mL]
1 | c1ccc(NCc2ccccn2)cc1 | 250 (≈ 1360 µM) | 250 (≈ 1360 µM) | > 250 | > 250 | 250 (≈ 1360 µM) | > 250 | 25 (≈ 136 µM) | 250 (≈ 1360 µM) | 125 (≈ 678 µM) | 25 (≈ 136 µM)
2 | C=CCC(Nc1cc(C)cc(C)c1)c1ccncc1 (stereo not given) | 250 (≈ 991 µM) | 250 (≈ 991 µM) | 250 (≈ 991 µM) | > 250 | > 250 | > 250 | 250 (≈ 991 µM) | > 250 | 125 (≈ 495 µM) | 125 (≈ 495 µM)
3 | Cc1ccc(NC(C#N)c2ccsc2)cc1 (stereo not given) | > 250 | > 250 | > 250 | 125 (≈ 547 µM) | > 250 | > 250 | 125 (≈ 547 µM) | > 250 | 250 (≈ 1090 µM) | 125 (≈ 547 µM)
4 | C=CCC(Nc1ccc(C)cc1)c1cccs1 (stereo not given) | > 250 | > 250 | > 250 | > 250 | > 250 | > 250 | 12.5 (≈ 51.4 µM) | > 250 | 50 (≈ 205 µM) | 6.25 (≈ 25.7 µM)
5 | Cc1ccc(NCc2cccnc2)cc1 | > 250 | > 250 | > 250 | > 250 | > 250 | > 250 | 250 (≈ 1260 µM) | > 250 | 250 (≈ 1260 µM) | 250 (≈ 1260 µM)
6 | N#CC(Nc1ccccc1)c1ccsc1 (stereo not given) | > 250 | > 250 | > 250 | > 250 | > 250 | > 250 | 250 (≈ 1170 µM) | > 250 | > 250 | 250 (≈ 1170 µM)
7 | C=CCC(Nc1ccc(Cl)c(Cl)c1)c1ccco1 (stereo not given) | > 250 | > 250 | > 250 | > 250 | > 250 | > 250 | > 250 | > 250 | > 250 | > 250
8 | C=CCC(Nc1ccc(C)cc1)c1ccsc1 (stereo not given) | > 250 | > 250 | > 250 | > 250 | > 250 | > 250 | > 250 | > 250 | > 250 | > 250
9 | O=[N+]([O-])c1cccc(NCc2cccnc2)c1 | > 250 | > 250 | > 250 | > 250 | > 250 | > 250 | 25 (≈ 109 µM) | > 250 | 25 (≈ 109 µM) | 25 (≈ 109 µM)
10 | Cc1ccc(NCc2ccncc2)cc1 | 100 (≈ 504 µM) | 50 (≈ 252 µM) | 100 (≈ 504 µM) | 50 (≈ 252 µM) | 100 (≈ 504 µM) | 200 (≈ 1010 µM) | 25 (≈ 126 µM) | 100 (≈ 504 µM) | 50 (≈ 252 µM) | 25 (≈ 126 µM)
11 | Cc1ccc(NCc2cccc(N)c2)cc1 | 50 (≈ 236 µM) | 50 (≈ 236 µM) | 100 (≈ 471 µM) | 100 (≈ 471 µM) | 25 (≈ 118 µM) | 25 (≈ 118 µM) | 100 (≈ 471 µM) | 12.5 (≈ 58.9 µM) | 100 (≈ 471 µM) | 100 (≈ 471 µM)
12 | C=CCC(Nc1ccc(Cl)cc1)c1ccsc1 (stereo not given) | > 250 | > 250 | > 250 | 250 (≈ 948 µM) | > 250 | > 250 | > 250 | > 250 | > 250 | > 250
13 | Cc1ccc(NCc2ccco2)cc1 | > 250 | 250 (≈ 1340 µM) | > 250 | 100 (≈ 534 µM) | 125 (≈ 668 µM) | 250 (≈ 1340 µM) | 25 (≈ 134 µM) | 250 (≈ 1340 µM) | 100 (≈ 534 µM) | 50 (≈ 267 µM)
14 | Cn1cccc1CNc1ccc(Cl)cc1 | > 250 | > 250 | > 250 | 125 (≈ 566 µM) | > 250 | > 250 | 250 (≈ 1130 µM) | > 250 | > 250 | 250 (≈ 1130 µM)
15 | N#CC(Nc1ccccc1)c1cccs1 (stereo not given) | > 250 | > 250 | > 250 | > 250 | > 250 | > 250 | 250 (≈ 1170 µM) | > 250 | > 250 | 250 (≈ 1170 µM)
16 | Clc1ccc(NCc2ccco2)cc1 | 62.5 (≈ 301 µM) | 62.5 (≈ 301 µM) | 50 (≈ 241 µM) | 50 (≈ 241 µM) | 50 (≈ 241 µM) | 50 (≈ 241 µM) | 6.25 (≈ 30.1 µM) | 62.5 (≈ 301 µM) | 12.5 (≈ 60.2 µM) | 12.5 (≈ 60.2 µM)
17 | c1ccc(NCc2cccnc2)cc1 | 250 (≈ 1360 µM) | 250 (≈ 1360 µM) | > 250 | > 250 | 250 (≈ 1360 µM) | 250 (≈ 1360 µM) | 125 (≈ 678 µM) | 250 (≈ 1360 µM) | 125 (≈ 678 µM) | 125 (≈ 678 µM)
18 | N#CC(Nc1ccc(Cl)cc1)c1ccsc1 (stereo not given) | > 250 | > 250 | > 250 | > 250 | > 250 | > 250 | 125 (≈ 503 µM) | > 250 | 250 (≈ 1010 µM) | 125 (≈ 503 µM)
19 | Cc1cc(C)cc(NCc2ccncc2)c1 | 250 (≈ 1180 µM) | 250 (≈ 1180 µM) | 250 (≈ 1180 µM) | 50 (≈ 236 µM) | 100 (≈ 471 µM) | 200 (≈ 942 µM) | 25 (≈ 118 µM) | 100 (≈ 471 µM) | 25 (≈ 118 µM) | 25 (≈ 118 µM)
20 | Cc1cc(C)cc(NCc2cccnc2)c1 | > 250 | > 250 | 200 (≈ 942 µM) | 100 (≈ 471 µM) | 100 (≈ 471 µM) | 200 (≈ 942 µM) | 25 (≈ 118 µM) | 200 (≈ 942 µM) | 25 (≈ 118 µM) | 25 (≈ 118 µM)
21 | Clc1ccc(NCc2ccsc2)cc1 | 62.5 (≈ 279 µM) | 62.5 (≈ 279 µM) | 250 (≈ 1120 µM) | 62.5 (≈ 279 µM) | 125 (≈ 559 µM) | 250 (≈ 1120 µM) | 62.5 (≈ 279 µM) | 250 (≈ 1120 µM) | 62.5 (≈ 279 µM) | 62.5 (≈ 279 µM)
22 | C=CCC(Nc1ccccc1)c1ccsc1 (stereo not given) | > 250 | > 250 | > 250 | 250 (≈ 1090 µM) | > 250 | > 250 | 250 (≈ 1090 µM) | > 250 | 125 (≈ 545 µM) | 250 (≈ 1090 µM)
23 | O=[N+]([O-])c1cccc(NCc2ccccn2)c1 | 100 (≈ 436 µM) | 100 (≈ 436 µM) | 100 (≈ 436 µM) | 50 (≈ 218 µM) | 200 (≈ 872 µM) | 100 (≈ 436 µM) | 50 (≈ 218 µM) | 200 (≈ 872 µM) | 50 (≈ 218 µM) | 50 (≈ 218 µM)
24 | c1ccc(NCc2ccoc2)cc1 | 250 (≈ 1440 µM) | 250 (≈ 1440 µM) | 250 (≈ 1440 µM) | 125 (≈ 722 µM) | 250 (≈ 1440 µM) | 250 (≈ 1440 µM) | 125 (≈ 722 µM) | 250 (≈ 1440 µM) | 250 (≈ 1440 µM) | 125 (≈ 722 µM)
25 | N#CC(Nc1ccccc1)c1ccncc1 (stereo not given) | > 250 | > 250 | > 250 | 250 (≈ 1190 µM) | 250 (≈ 1190 µM) | 250 (≈ 1190 µM) | 125 (≈ 597 µM) | 250 (≈ 1190 µM) | 250 (≈ 1190 µM) | 125 (≈ 597 µM)
26 | C=CCC(Nc1ccc(C)cc1)c1ccco1 (stereo not given) | > 250 | > 250 | > 250 | > 250 | > 250 | > 250 | > 250 | > 250 | > 250 | > 250

From ChEMBL document CHEMBL1143950, “Antifungal and cytotoxic activities of some N-substituted aniline derivatives bearing a hetaryl fragment” (Bioorg Med Chem, 2008)
